Tested on: 4T1 tumor
Assay: 4T1 syngeneic tumor model
Format: in vivo, BALB/c mice
Protocol: To test potential immunomodulatory activity of Compound 1 in vivo, antitumor efficacy studies were performed in syngeneic tumor models.
MBT-2 cells were obtained from the Japanese Collection of Research Bioresources Cell Bank and were maintained in DMEM supplemented with 10% FBS. MC38 cells were obtained from the NCI. 4T1 cells were obtained from ATCC and maintained in RPMI media supplemented with 10% FBS. For MBT-2 experiments, 5×10^5 MBT-2 cells were inoculated subcutaneously into the right hind flank of 6- to 8-week-old C3H mice or athymic nude mice (Charles River Laboratories, Wilmington, Mass.). For MC38 studies, 12-week old female C57BL/6 mice were inoculated with brei of MC38 tumors (in-vivo passage 6) into the right hind flank. For 4T1 studies, 7.5×10^5 4 T1 cells were inoculated subcutaneously into the right hind flank of 6- to 8-week-old female BALB/c mice or athymic nude mice (Charles River Laboratories). […] Mice were monitored for tumor growth and overt tolerability over the course of the experiment. […] Tumor volume was calculated using the formula (L×W^2)/2, where L and W refer to the length and width dimensions, respectively. Tumor growth inhibition (TGI) was calculated using the formula (1−(VT/VC))×100, where VT is the tumor volume of the treatment group on the last day of treatment, and VC is the tumor volume of the control group on the last day of treatment. […]

CC(C)C(=O)N1CCC(c2cc(-c3ccc(NC(=O)c4cn(C(C)C)c(=O)n(-c5ccccn5)c4=O)cc3)c3c(N)ncnn23)CC1 [Compound 1, N-(4-(4-Amino-7-(1-isobutyrylpiperidin-4-yl)pyrrolo[1,2-f][1,2,4]triazin-5-yl)phenyl)-1-isopropyl-2,4-dioxo-3-(pyridin-2-yl)-1,2,3,4-tetrahydropyrimidine-5-carboxamide]
antitumor efficacy (tumor volume) (4T1 in BALB/c mice, oral BID, FIG. 7B): dose-dependent efficacy
ratio of M1-like to M2-like macrophages (4T1 tumors, flow cytometry, FIG. 7D): increased the ratio of M1-like to M2-like macrophages in a dose-dependent manner
